# Measurements as given in ChEMBL document CHEMBL1240516, “Studies on ligand binding to histidine triad nucleotide binding protein 1” (Bioorg Med Chem, 2010).
# What was measured:
# [1] = target: T1, Adenosine 5'-monophosphoramidase HINT1 (Mus musculus, UniProt P70349); assay: Binding affinity to mouse HINT1 by HSQC spectra assay
# T1 sequence (P70349 whole entry): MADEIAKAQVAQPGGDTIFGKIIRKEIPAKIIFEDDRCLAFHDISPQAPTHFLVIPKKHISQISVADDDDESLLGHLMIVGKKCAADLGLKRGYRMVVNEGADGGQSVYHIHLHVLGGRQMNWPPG
# [2] = target: T1, Adenosine 5'-monophosphoramidase HINT1; assay: Binding affinity to mouse HINT1 by fluorescence quenching assay
# [3] = target: T1, Adenosine 5'-monophosphoramidase HINT1; assay: Binding affinity to mouse HINT1 by NMR analysis
Kd [3] [µM],SMILES,Kd [1] [µM],Kd [2] [µM]
–,NC(=O)c1ncn([C@@H]2O[C@H](COP(=O)(O)O)[C@@H](O)[C@H]2O)c1N,1200,1100
60,Nc1nc2c(ncn2[C@@H]2O[C@H](COP(=O)(O)O)[C@H](O)[C@@H]2O)c(=O)[nH]1 [E626],–,67
